# From PubChem BioAssay AID608 (Sanford-Burnham Center for Chemical Genomics, 2007)
# Active and inactive are the calls of the source. The rule behind the calls is not given here.
# Biological target: Peptidyl-prolyl cis-trans isomerase FKBP1A (Homo sapiens) (UniProt P62942)
# Experiment: small-molecule binding to FKBP12 – biophysical, NMR detection (AID 608)
# Conditions: purified FKBP12
# Chain of Peptidyl-prolyl cis-trans isomerase FKBP1A (Homo sapiens) (P62942 whole entry, looked up): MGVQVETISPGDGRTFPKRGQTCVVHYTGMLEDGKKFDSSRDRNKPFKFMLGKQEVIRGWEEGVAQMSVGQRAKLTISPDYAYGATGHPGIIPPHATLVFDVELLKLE
row,SMILES,Kd
1,CC[C@H]1CN2CCc3cc(OC)c(OC)cc3C2C[C@@H]1CC1NCCc2cc(OC)c(OC)cc21 (some centres undefined),> 4 mM (inactive)
2,Cc1nc(-c2ccccc2)ncc1C(=O)O,> 4 mM (inactive)
3,CCOC(=O)C1=C(O)CCN(C)C1,> 4 mM (inactive)
4,Cc1c(O)c(O)cc2c1CC=C1[C@@]2(C)CC[C@@]2(C)C3C[C@](C)(C(=O)O)CC[C@]3(C)CC[C@]12C (some centres undefined),> 4 mM (inactive)
5,CSc1ccccc1NC(=O)c1ccco1,> 4 mM (inactive)
6,COC(=O)CC1=Nc2ccccc2NC(=O)C1,> 4 mM (inactive)
7,C[N+](C)(C)CC(O)CC(=O)O (centres undefined),> 4 mM (inactive)
8,COc1cc(C(C)=O)ccc1OCC(O)Cn1ccnc1 (centres undefined),> 4 mM (inactive)
9,CC(=O)Oc1ccc(O)cc1,> 4 mM (inactive)
10,CC(=O)Oc1c(-c2ccccc2)oc2c(CC=C(C)C)c3c(c(OC(C)=O)c2c1=O)C=CC(C)(C)O3,> 4 mM (inactive)
11,NCc1ccc(S(N)(=O)=O)cc1,> 4 mM (inactive)
12,O=C(Nc1nnc(-c2ccccc2Cl)o1)c1ccco1,> 4 mM (inactive)
13,O=C(O[C@@H]1Cc2c(O)cc(O)cc2O[C@@H]1c1cc(=O)c(O)c2c(O)c(O)cc([C@H]3Oc4cc(O)cc(O)c4C[C@H]3O)c2c1)c1cc(O)c(O)c(O)c1,> 4 mM (inactive)
14,COC(=O)[C@@H]1OC(=O)C2OC23[C@@]1(C)CCC1[C@]2(C)C(C[C@H](O)[C@]13C)C(C)(C)[C@H](OC(C)=O)C[C@@H]2OC(C)=O (some centres undefined),> 4 mM (inactive)
15,CC(=O)O[C@@H]1CC2C(C)(C)[C@H](O)C=C[C@]2(C)C2CC[C@@]3(C)[C@H](c4ccoc4)OC(=O)C4OC43[C@@]21C (some centres undefined),> 4 mM (inactive)
16,O=C(/C(=N\O)n1cncn1)c1ccccc1Cl,> 4 mM (inactive)
17,O=[N+]([O-])c1ccc(/C=N/c2ncn[nH]2)cc1,> 4 mM (inactive)
18,CCc1cccc(C)c1NC(=O)c1cc(C)oc1C,> 4 mM (inactive)
19,Cc1oc(-c2ccccc2)cc1C(=O)O,> 4 mM (inactive)
20,CC(=O)NC(=S)Nc1cccc(C(=O)O)c1C,> 4 mM (inactive)
21,OCCNC(=S)Nc1ccccc1,> 4 mM (inactive)
22,NCc1cc2ccccc2s1,> 4 mM (inactive)
23,CCOc1ccc(-c2n[nH]c(=S)n2C)cc1,> 4 mM (inactive)

row,SMILES,Kd
1,C=C1CCC(=O)C(C)CCC2C1CC2(C)C (centres undefined),> 4 mM (inactive)
2,O=C(O)c1sccc1-n1cccc1,> 4 mM (inactive)
3,CC(=O)CC1(O)C(=O)Nc2ccc(Br)cc21 (centres undefined),> 4 mM (inactive)
4,Nc1ccc(NC(=O)c2ccco2)c(Cl)c1,> 4 mM (inactive)
5,Cc1onc(-c2ccccc2)c1CO,> 4 mM (inactive)
6,COc1ccc2nc(NC(=O)c3cnccn3)sc2c1,> 4 mM (inactive)
7,Cc1cc(CN2C(=O)c3ccccc3C2=O)on1,> 4 mM (inactive)
8,O=C(O)c1ccc2occc2c1,> 4 mM (inactive)
9,CN(C)S(=O)(=O)N1CCc2ccccc21,> 4 mM (inactive)
10,COc1nc(N2CCOCC2)nc(N)c1[N+](=O)[O-],> 4 mM (inactive)
11,Nc1ccc(C2SCCS2)cc1,> 4 mM (inactive)
12,CCCNC(=O)c1cnc2n(c1=O)CCS2,> 4 mM (inactive)
13,CC(=O)Nc1cccc(NC(=O)c2cccnc2)c1,> 4 mM (inactive)
14,Cn1c(=O)[nH]c2nc[nH]c2c1=O,> 4 mM (inactive)
15,C#CCCCCCCCCCCCC(=O)CC(O)COC(C)=O (centres undefined),> 4 mM (inactive)
16,O=C(Nc1ccc(OCC(=O)N2CCOCC2)cc1)c1ccccc1Cl,> 4 mM (inactive)
17,CC(=O)Nc1nnc(-c2ccncc2)s1,> 4 mM (inactive)
18,COC(=O)c1cccc(N)c1,> 4 mM (inactive)
19,O=C(O)CS(=O)(=O)c1ccccc1[N+](=O)[O-],> 4 mM (inactive)
20,CCCNC(=O)CSc1nnc(C)s1,> 4 mM (inactive)
21,CC(CCC(=O)O)[C@H]1CCC2C3CC[C@@H]4C[C@H](O)CC[C@]4(C)C3C[C@H](O)[C@@]21C (some centres undefined),> 4 mM (inactive)
22,COC(=O)c1c(OC)cc2c(c1C)Oc1c(Cl)c(O)c(Cl)c(C)c1C(=O)O2,> 4 mM (inactive)
23,NC(=O)c1cc2c(n(-c3ccccc3)c1=O)CCCC2=O,> 4 mM (inactive)

row,SMILES,Kd
1,c1cncc(Cn2cccc2)c1,> 4 mM (inactive)
2,Cc1cc(C(=O)Nn2cnnc2)cs1,> 4 mM (inactive)
3,CCOC(=O)c1c(SC)nc(=O)[nH]c1C,> 4 mM (inactive)
4,O=C(O)c1cccc(O)c1O,> 4 mM (inactive)
5,Cc1ncoc1C(=O)Nc1ccccc1C(N)=O,> 4 mM (inactive)
6,CCOc1cc(S(=O)(=O)N2CCOCC2)ccc1F,> 4 mM (inactive)
7,NC(=O)c1ccc(N2CCCCC2)c(N)c1,> 4 mM (inactive)
8,CCOC(=O)Cc1cc(=O)n2[nH]c(C)cc2n1,> 4 mM (inactive)
9,C#CCCCCCCCCCCCc1ccco1,> 4 mM (inactive)
10,CCC(=O)NC(=S)Nc1ccc(N2CCOCC2)cc1,> 4 mM (inactive)
11,COc1ccc(-c2oc3ccccc3c(=O)c2O)cc1OC,> 4 mM (inactive)
12,Cn1nnc2c(Cl)ncnc21,> 4 mM (inactive)
13,CCCc1nc2ccccc2c2nc(N)nn12,> 4 mM (inactive)
14,Cc1ccc(C)n1/N=C1\NC(=O)CS1,> 4 mM (inactive)
15,C=CCCCCCCCCCCCC(O)CC(O)COC(C)=O (centres undefined) (tested in a mixture with another compound),> 4 mM (inactive)
16,O=C(Nc1ccc2c(c1)OCO2)c1c(F)cccc1F,> 4 mM (inactive)
17,Cc1cc(Cl)ccc1NC(=O)C(N)=O,> 4 mM (inactive)
18,COCc1cc(Cl)nc(-c2csc(C)n2)n1,> 4 mM (inactive)
19,O=C(c1ccncc1)c1ccc(Br)cc1,> 4 mM (inactive)
20,COc1ccccc1-c1nc(-c2ccc(C)nc2OC)no1,> 4 mM (inactive)
21,Cn1c2ccccc2n2c(=S)[nH]nc12,> 4 mM (inactive)
22,COc1ccc2c3c1O[C@H]1C[C@@H](O)C=C[C@@]31CCN(C)C2,> 4 mM (inactive)
23,Nc1nc(-c2ccc(F)c(F)c2)cs1,> 4 mM (inactive)

row,SMILES,Kd
1,COC(=O)C[C@@H]1C2(C)C(=O)[C@@H](CC3=C4CC(O)O[C@@H](c5ccoc5)[C@]4(C)CCC32)[C@H](O)C1(C)C (some centres undefined),> 4 mM (inactive)
2,O=C(Nc1ccc(Cl)cc1)N1CCCC1,inactive
3,CC(=O)Nc1ccc2c(C)cc(=O)[nH]c2c1,> 4 mM (inactive)
4,Cc1ccc(SCC(=O)N2CC(C)OC(C)C2)cc1 (centres undefined),inactive
5,COC(=O)c1ccc2ncccc2c1,> 4 mM (inactive)
6,COc1ccc2c(c1O)-c1c(OC)c(OC)cc3c1[C@H](C2)N(C)CC3,> 4 mM (inactive)
7,Oc1ccc(C(=S)N2CCOCC2)cc1,> 4 mM (inactive)
8,COc1ccc2c(c1)O[C@H]1c3ccc(OC)cc3OC[C@@H]21,> 4 mM (inactive)
9,O=C(O)c1ccc(CSc2ncn[nH]2)cc1,> 4 mM (inactive)
10,NCc1nnnn1-c1ccccc1,> 4 mM (inactive)
11,Oc1ccc([C@H]2Oc3cc(O)cc(O)c3C[C@H]2O)cc1,> 4 mM (inactive)
12,CC(=O)Nc1ccc(S(=O)(=O)N(C)C)cc1,> 4 mM (inactive)
13,COC1=C(OC)C(=O)C(C/C=C(\C)CC/C=C(\C)CC/C=C(\C)CC/C=C(/C)CC/C=C(\C)CC/C=C(\C)CC/C=C(\C)CC/C=C(\C)CC/C=C(\C)CCC=C(C)C)=C(C)C1=O,> 4 mM (inactive)
14,Cc1c(N=CN2CCOCC2)c(=O)n(C)c(=O)n1C,> 4 mM (inactive)
15,O=C1CNC(=O)N1Cc1ccc(Br)cc1,> 4 mM (inactive)
16,Nc1c(S(=O)(=O)c2ccccc2)csc1C(=O)O,> 4 mM (inactive)
17,CCn1cnc(C(=O)NC)c1C(=O)NC,> 4 mM (inactive)
18,CN(C)C(=O)c1ccc(-c2n[nH]c(=O)c3ccccc23)cc1,> 4 mM (inactive)
19,O=C(Nc1nncs1)C1(c2ccccc2)CCCC1,> 4 mM (inactive)
20,CC[C@H]1CN2CCC1C[C@@H]2[C@@H](O)c1ccnc2ccc(OC)cc12 (some centres undefined),> 4 mM (inactive)
21,Nc1ccc2[nH]ccc2c1,> 4 mM (inactive)
22,Oc1ccccc1-c1cc(C(F)(F)F)[nH]n1,> 4 mM (inactive)
23,O=C(O)Cc1csc(-c2ccccc2)n1,> 4 mM (inactive)

row,SMILES,Kd
1,Cc1cc(C(=O)Nc2sc(C)c(C)c2C#N)no1,> 4 mM (inactive)
2,O=S(=O)(O)c1cc[n+]([O-])cc1,> 4 mM (inactive)
3,CCNC(=S)N1CCCC(C(N)=O)C1 (centres undefined),> 4 mM (inactive)
4,O=C(Nc1ccc(Cl)cn1)c1cnn2cccnc12,> 4 mM (inactive)
5,c1ccc(C2NCCc3[nH]cnc32)cc1 (centres undefined),> 4 mM (inactive)
6,COc1ccc(NC(=O)N2CCCCC2)cc1,> 4 mM (inactive)
7,Cn1ncc(NC(=O)Nc2ccc(F)cc2F)c1C(N)=O,> 4 mM (inactive)
8,Cc1cc(C(=O)N2CCN(c3ccccn3)CC2)no1,> 4 mM (inactive)
9,COc1cc(C(=O)NCC2CCCO2)cc(OC)c1OC (centres undefined),> 4 mM (inactive)
10,C/C=C1\[C@H]2C=C(C)C[C@]1(N)c1ccc(=O)[nH]c1C2,> 4 mM (inactive)
11,O=C(Nc1nnc(-c2cccnc2)o1)c1ccccc1F,> 4 mM (inactive)
12,CCC(C)C(=O)O[C@@H]1C[C@@]2(C)[C@H](c3ccoc3)OC(=O)CC23OC2(C)O[C@]14[C@]1(C)[C@@H](CC(=O)OC)C5(C)CC1(O)[C@](O)(C5OC(=O)C1(C)OC1C)[C@@H](OC(C)=O)[C@]34O2 (some centres undefined),> 4 mM (inactive)
13,Oc1cccc(N2CCOCC2)c1,> 4 mM (inactive)
14,CC(C)C(=O)NCC(c1ccco1)N1CCOCC1 (centres undefined),> 4 mM (inactive)
15,Cc1nnc2n(c1=O)N=C(c1ccccc1)CS2,> 4 mM (inactive)
16,O=C(O)c1cnc2n(c1=O)CCS2,> 4 mM (inactive)
17,O=C(c1ccco1)N1CCN(Cc2cccc(F)c2)CC1,> 4 mM (inactive)
18,c1ccc(Cn2cccc2)nc1,> 4 mM (inactive)
19,CNC(=O)c1ccccc1N,> 4 mM (inactive)
20,CCn1c(-c2c[nH]c3ccccc23)n[nH]c1=S,> 4 mM (inactive)
21,Cc1cc(NC(=O)c2ccc3c(c2)OCO3)no1,> 4 mM (inactive)
22,Nc1nonc1-c1nc2ccccc2[nH]1,> 4 mM (inactive)
